Literature values as cited in patent US20150196506A1, “CHEWING GUM FORMULATIONS COMPRISING DAPOXETINE AND TADALAFIL” (Sanovell Ilac Sanayi Ve Ticaret Anonim Sirketi, priority 2012, published 2015).

Columns and labels:
[1] = similarly poorly dissolved in gastric juice
[2] = following oral administration

For `CN1CC(=O)N2[C@H](c3ccc4c(c3)OCO4)c3[nH]c4ccccc4c3C[C@@H]2C1=O` [Tadalafil, (6R-trans)-6-(1,3-benzodioxol-5-yl)-2,3,6,7,12,12a-hexahydro-2-methyl-pyrazino [1′,2′:1,6] pyrido[3,4-b]indole-1,4-dione], the solubility in water [1] is given as “poorly soluble in water”.
For `CN(C)[C@@H](CCOc1cccc2ccccc12)c1ccccc1` [dapoxetine], the “binding to plasma proteins” value [2] is given as “almost completely”.
